Experimental data: patent US20260294906A1, “TREATING PSORIASIS USING A SMALL MOLECULE INHIBITOR OF TUMOR NECROSIS FACTOR ALPHA” (SANOFI, priority 2023, published 2026)
Entries after “also recorded” stand apart in the source; their conditions may differ.

Tests used:
IL-22 = assay: Serum levels of biomarker IL-22 (single-molecule array ELISA); format: in vivo, human
Experimental: (§1) The primary objective of the study was to assess the safety, tolerability, and clinical efficacy of Compound 1 at 200 mg BID via oral administration. Also evaluated was the clinical effect of Compound 1 as compared to placebo on the percent change in PASI and TLS scores from baseline to week 2 and week 4. The percent change in PASI score from baseline to week 4 was determined. TLS score was also assessed over the same time period. Also assessed was the effect of Compound 1 on biomarkers of psoriasis. Blood samples collected at predetermined time points were processed to quantify serum levels of biomarkers, including interleukin (IL)-17A, IL-17F, and IL-22 by high sensitivity methods. IL-17A, IL-17F and IL-22 are the main cytokines released by Th17 cells. Plasma levels of Compound 1 were measured to assess pharmacokinetics in the study population.
(§2) Two study interventions were used, Compound 1 and placebo. The Compound 1 intervention comprised 4× tablets of Compound 1 50 mg twice daily, i.e. 200 mg BID, for 4 weeks. The placebo intervention was 4× tablets of placebo twice daily for 4 weeks. Tablets were administered orally.
Blood samples were processed for analysis of IL-17A, IL-17F and IL-22 in serum samples by high sensitivity methods. Samples were collected according to the schedule of activity described above.
As indicated above, peripheral blood samples collected at predetermined time points were processed to quantify serum levels of biomarkers of psoriasis including IL-17A, IL-17F, and IL-22. Levels of IL-17A and IL-17F were quantified using a single molecule counting sandwich immunoassay (SMCxPro™, Millipore—see also Hwang et al., Methods (2019) 158:69-76). Levels of IL-22 were quantified using a single-molecule array ELISA (SIMOA™, Myriad RBM—see also Rissin et al., Anal Chem (2011) 83(6):2279-2285). Statistical analysis was based on geometric mean ratio to baseline; a two-sample t-test at significance alpha level of 5% was used for calculation of the p-values.

[1] = system: participants with mild to moderate psoriasis; assay: Adverse events and safety in the clinical study; format: in vivo, human
Experimental: A double-blind, randomized, placebo-controlled phase 1 study was carried out in participants with mild to moderate psoriasis. Study participants were randomized to 200 mg twice a day (BID) of Compound 1 or placebo in 2:1 ratio (approximately 24 in the treatment group and 12 in the placebo group). The study comprised an up to 4-week screening period, and a 4-week treatment period with Compound 1 or placebo. An end-of-study visit was carried out 10±3 days after the last investigational medicinal product (IMP) administration.
as §1, §2
Adverse events (AEs) were reported by the participant or observed by the Investigator, and were defined as follows: • An AE is any untoward medical occurrence in a patient or clinical study participant, temporally associated with the use of study intervention, whether or not considered related to the study intervention. • NOTE: An AE can therefore be any unfavorable and unintended sign (including an abnormal laboratory finding), symptom, or disease (new or exacerbated) temporally associated with the use of study intervention.
Events meeting the AE definition: • Any abnormal laboratory test results (hematology, clinical chemistry, or urinalysis) or other safety assessments (e.g., ECG, radiological scans, vital signs measurements), including those that worsen from baseline, considered clinically significant in the medical and scientific judgment of the Investigator (i.e., not related to progression of underlying disease), e.g.: • Symptomatic and/or • Requiring either corrective treatment or consultation, and/or • Leading to IMP discontinuation or modification of dosing, and/or • Fulfilling a seriousness criterion, and/or • Defined as an AESI • Exacerbation of a chronic or intermittent pre-existing condition including either an increase in frequency and/or intensity of the condition. • New condition detected or diagnosed after study intervention administration even though it may have been present before the start of the study. • Signs, symptoms, or the clinical sequelae of a suspected drug-drug interaction. • Signs, symptoms, or the clinical sequelae of a suspected overdose of either study intervention or a concomitant medication. • Lack of efficacy or failure of expected pharmacological action per se will not be reported as an AE or SAE. Such instances will be captured in the efficacy assessments. However, the signs, symptoms, and/or clinical sequelae resulting from lack of efficacy will be reported as AE or SAE if they fulfill the definition of an AE or SAE.
Complications that occur during hospitalization are AEs. If a complication prolongs hospitalization or fulfills any other serious criteria, the event is serious. […]

[2] = 200 mg BID, N = 26, placebo 33.3%

Compound: CN1C(=O)c2cccc(OC(F)F)c2[C@H]2C[C@@H]1c1nc3ccc(-c4cnc(C5(N)CCC5)nc4)cc3n12 [Compound 1, (7R,14R)-11-[2-(1-aminocyclobutyl)pyrimidin-5-yl]-1-(difluoromethoxy)-6-methyl-6,7-dihydro-7,14-methanobenzimidazo[1,2-b][2,5]benzodiazocin-5(14H)-one]
- Serum level of IL-22 (in words) (IL-22; after treatment for 4 weeks): substantially decreased
- Serum level of IL-22, geometric mean (geometric SE) (IL-22; baseline (before treatment)): 4.13 (1.19) pg/mL
- Serum level of IL-22, geometric mean (geometric SE) (IL-22; week 2, 200 mg BID): 2.86 (1.18) pg/mL
- Serum level of IL-22, geometric mean (geometric SE) (IL-22; week 4, 200 mg BID): 2.49 (1.15) pg/mL
- safety and tolerability (in words) ([1]; 200 mg BID over 28 days): safe and well-tolerated
- serious AEs (SAEs), severe TEAEs or AEs of special interest (AESI) ([1]; 200 mg BID, 4 weeks): no serious AEs (SAEs), severe TEAEs or AEs of special interest (AESI); also recorded: no serious AEs, severe treatment emergent AEs, or AESI being reported; also recorded: No serious or severe adverse events were observed
- Number of TEAEs leading to permanent study intervention discontinuation ([1]; 200 mg BID, 2 participants): 2
- drop-out due to CPK increase ([1]; 200 mg BID, Day 8, linked to increased physical activity): another participant dropped out on Day 8 due to CPK increase (grade 2) assessed by the investigator as non-drug related
- drop-out due to nausea ([1]; 200 mg BID, Day 15): one participant dropped out on Day 15 due to nausea assessed by the investigator as drug related
- Number of participants with Dysgeusia (PT) ([1]; 200 mg BID, N = 26, placebo 0): 16
- % of participants with Dysgeusia (PT) ([1]; 200 mg BID, N = 26, placebo 0%): 61.5%
- Number of participants with gastrointestinal disorders (SOC) ([1]; 200 mg BID, N = 26, placebo 2): 8
- Number of participants with headache (PT) ([1]; 200 mg BID, N = 26, placebo 4): 8
- Number of participants with infections and infestations (SOC) ([1]; 200 mg BID, N = 26, placebo 4): 4
- Number of participants with nervous systems disorders (SOC) ([1]; 200 mg BID, N = 26, placebo 4): 19
- % of participants with gastrointestinal disorders (SOC) ([1]; 200 mg BID, N = 26, placebo 16.7%): 30.8%
- % of participants with headache (PT) [1, 2]: 30.8%
- % of participants with infections and infestations (SOC) [1, 2]: 15.4%
- % of participants with nervous systems disorders (SOC) [1, 2]: 73.1%
- severity of TEAEs ([1]; 200 mg BID, NCI-CTCAE grades): All TEAEs were of grade 1 or grade 2 severity and participants fully recovered
- time for CPK value to return to baseline level ([1]; 200 mg BID, one participant, CPK increase grade 2): 7 days
- % of participants with treatment-emergent adverse events (TEAEs) ([1]; 26 participants, 200 mg BID, 4 weeks, placebo 58.3%): 92.3%
- Number of participants with treatment-emergent adverse events (TEAEs) ([1]; out of 26 participants, 200 mg BID, 4 weeks, placebo 7 of 12): 24
- PCSA for vital signs, ECG and laboratory parameters (in words) ([1]; scattered across placebo and Compound 1 groups): no safety concerns based on vital signs, ECG or laboratory results; also recorded: All were considered not clinically meaningful by the investigator
